Measured values reported in patent US6716628B2, “Chondrogenesis promoters and indolin-2-one derivatives” (Chugai Seiyaku Kabushiki Kaisha, priority 1999, dated 2004).

Assays:
[1] = test system: rat primary culture articular chondrocytes; test: Uptake of 3H-labeled thymidine (cell growth); type: cell-based; details: 10 μmol/L of compound, vs control solvent
Experimental: Articular chondrocytes were trimmed from the femoral knee joint of 6-week-old male SD rats (Nihon SLC Corp.) using a scalpel, and then digested in 0.3% collagenase (WORTHINGTON Corp.) and cultivated (Calcif. Tissue Int. 19:179-187,1975).
Uptake of ^3H-labeled thymidine (Amersham Corp.) was measured to determine the cell growth. For the measurement, the isolated articular chondrocytes were cultured in a 96-well cell culturing plate (FALCON Corp.) to a cell density of 10,000 per well. The medium used was an equivalent mixture of Dulbecco MEM containing fetal bovine serum (final concentration: 10%), 100 U/mL of penicillin (Meiji Seika Co., Ltd.) and 100 μg/mL of streptomycin (Banyu Pharmaceutical Corp.), and Ham F-12 medium (both by GIBCO Corp.). After 60-70% of the cells reached confluency, the medium was exchanged with one having a fetal bovine serum concentration of 0.3% and culturing was carried out overnight. On the following day, the medium was exchanged with the same type also containing compound A at a final concentration of 0.1, 1.0 or 10 μmol/L and 0.3% fetal bovine serum. […] The filter paper was soaked with plastic scintillator (Wallac Corp.), and the radioactivity was measured with a scintillation counter (Wallac Corp.). […]

[2] = test system: common mouse chondrocyte and adipocyte precursor cell line (CL-1); test: Differentiation of CL-1 into chondrocytes, alcian blue/oil red O double staining; type: cell-based; details: 10 μmol/L, 7 days after confluency, vs vehicle control
Experimental: […] (WO98/39414) were cultured in a 4-well chamber slide (Nunc Corp.) to a cell density of 5000/cm^2. The medium used was A-MEM (GIBCO Corp.) containing 100 U/mL of penicillin (Meiji Seika Co., Ltd.), 100 μg/mL of streptomycin (Banyu Pharmaceutical Corp.) and 10% fetal bovine serum (INTERGEN Corp.). When the CL-1 cells reached confluency, compound A was added to a final concentration of 10 μmol/L, with further addition when the medium was exchanged 3 times a week during culturing for 7 days.
A slide was also prepared with ethanol (Junsei Chemical Corp.) to a final concentration of 1% in the medium as a vehicle control. On the 7th day after confluency, the plates were collected, the CL-1 cell layer was double-stained with alcian blue and oil red O, and differentiation to chondrocytes or adipocytes was observed. After culturing was completed, the cell layer was fixed for one hour at room temperature with a 4% paraformaldehyde solution (Wako Pure Chemical Industries) and then washed with 0.1N hydrochloric acid and stained overnight with an aqueous solution (pH 1.0) of 1% alcian blue (EM Science Corp.). […]

[3] = test system: full thickness cartilage deficient rat models; test: Cartilage repair effect in full thickness cartilage deficient rat models; type: in vivo; details: 1.0 mmol/L, 50 μL intraarticular daily for 3 weeks from day 7 after operation
Experimental: A Kirschner wire with a 2.4 mm diameter (Mizuho Medical Instruments Corp.) was used to create a 2.5 mm-deep deficient area in the right femoral patellar surface, reaching to the marrow, in 10-week-old male CD rats (Nihon Charles River Co., Ltd.). From the seventh day after the operation, 50 μL of a 50% dimethylsulfoxide (DMSO) physiological saline solution as a solvent (DMSO: Junsei Chemical Corp.; physiological saline: Otsuka Pharmaceutical Corp.), or of a 1.0 mmol/L compound A solution, was administered into the right knee joint daily once a day for 3 weeks. The daily dosage of compound A was 81.7 μg.
On the day following the day of final administration, the right femur was taken, and fixed in 20% neutral buffered formaldehyde (Wako Pure Chemical Industries) for one week, and then demineralized for 2 weeks with 20% EDTA-4Na solution (pH 7.4, Wako Pure Chemical Industries), and the deficient area was trimmed with a razor (Feather Co., Ltd.). The trimmed area was subjected to paraffin blocking using an automatic embedding apparatus (Sakura Corp.) and paraffin (equivalent mixture of products by Kokusan Kagaku Corp. and Fisher Scientific Corp.). Here, a paraffin automatic dispensing embedding center (Miles Scientific Corp.) was used to fix each paraffin block in a tissue sample cassette (TISSUE-TEK Corp.)
Each paraffin block was cut into 2 μm-thick sections using a microtome (Daiwa Optical Instruments Corp.) and microtome knife (Feather Co., Ltd.), and then attached onto slide glass (Matsunami Glass Corp.) and dried. After drying, the sections were dipped in xylene to remove the paraffin, and then dipped in a step dilution series from ethanol to water and then stored in water. The sections were stained with 0.3% Safranin O (Merck Co.,.Ltd.) and observed with a microscope (magnification: 10× object lens), and a histological score was assigned according to a modification of the method of Wakitani et al. (J. Bone Joint Surg. 76-A, 579-592, 1994).

CCOC(CN1C(=O)[C@](CC(=O)Nc2ccc(C)cc2)(NC(=O)Nc2ccc(C)cc2)c2ccccc21)OCC [Compound A, (+)-1-(2,2-diethoxyethyl)-3-((4-methylphenyl)aminocarbonylmethyl)-3-(N′-(4-methylphenyl)ureido)indolin-2-one]
uptake of 3H-labeled thymidine [1]: significantly increased
differentiation of CL-1 to adipocytes (oil red O) [2]: suppressed
differentiation of CL-1 to chondrocytes (alcian blue) [2]: clearly promoted
repair of deficient areas (Safranin O staining) [3]: exhibited repair in the Safranin O-positive cartilaginous tissue
histological score: cell morphology ([3]; vs solvent alone): significant decrease
histological score: thickness of cartilage ([3]; vs solvent alone): significant decrease
histological total score ([3]; vs solvent alone): significant decrease
